Measurements from publication PMC6270778, “Novel Cinnamic Acid Derivatives as Antioxidant and Anticancer Agents: Design, Synthesis and Modeling Studies” (Molecules, 2014).
“And” between values parts separate entries of the source, which are not always exact repeats. Equal values may be shown once.

Experiments:
[1] = Interaction with the stable radical DPPH
Experimental: The novel acids were studied for the antioxidant activity by the use of the sTable 2,2-diphenyl-1-picrylhydrazyl radical (DPPH) at concentrations 0.05 and 0.1 mM after 20 and 60 min (Table 2). In the DPPH assay, the dominant chemical reaction involved is the reduction of the DPPH radical by single electron transfer SET from the antioxidant. Phenolic compounds eg. […] The compounds presented reducing abilities which ranged nearly 29% (4ii), small differences were found among the compounds with time and concentration. […] Due to steric reasons the interaction of DPPH with the tested compounds is low.
To a solution of DPPH in absolute ethanol the appropriate volume of the compounds (0.05 and 0.1 mM final concentrations) dissolved in DMSO was added. The absorbance was recorded at 517 nm after 20 and 60 min at room temperature (Table 3).

[2] = Superoxide radical scavenging activity (non-enzymatic, PMS/NADH, NBT method); conditions: 0.1 mM; no = no action under the used experimental conditions
Experimental: The superoxide anion radical (O2^−·) is less toxic than the hydroxyl radical, but still being one of the most known toxic ROS. Two different experimental assays are followed for the determination of superoxide anion radical scavenging activity: (i) one involves an enzymatic production of superoxide anions and (ii) the other is supported by a non- enzymatic procedure. Herein the test is performed at 0.1 mM concentration, generating superoxide anion radicals by a non-enzymatically assay (Table 3). Compound 1i presented the highest activity, followed by compound 1ii (75% and 50%, respectively).
Superoxide radicals were produced non-enzymatically by mixing PMS, NADH and air–oxygen. The nitroblue tetrazolium method was used for the estimation of the produced radicals. The reaction mixture containing compounds (0.1 mM), 3 μM PMS, 78 μM NADH, and 25 μM NBT in 19 μM phosphate buffer pH 7.4 was incubated for 2 min at room temperature. The acrylic acids were preincubated for 2 min before adding NADH (Table 4) and the absorption was recorded at 560 nm.

[3] = Inhibition of linoleic acid peroxidation (AAPH); conditions: 0.1 mM
Source text: For the in vitro study of the free radical production, azo compounds generating free radicals through spontaneous thermal decomposition are used. The water soluble 2,2'-azobis(2-amidinopropane) hydrochloride (AAPH) is recommended as appropriate for measuring radical-scavenging activity in vitro. The activity of the peroxyl radicals produced by the action of AAPH greatly resembles to cellular activities such as lipid peroxidation. The phenyl substituted acids presented remarkable activity at 0.1 mM concentration (84%–92%) compared to the non-substituted derivatives (20%–63%).
For initiating the free radical, 2,2'-azobis(2-amidinopropane) dihydrochloride (AAPH) is used. The final solution in the UV cuvette consisted of ten microliters of the 16 mM linoleate sodium dispersion 0.93 mL of 0.05 M phosphate buffer, pH 7.4, thermostatted at 37 °C. 50 μL of 40 mM AAPH solution was added as a free radical initiator at 37 °C under air and 10 μL of the tested compounds. The oxidation of linoleic acid sodium salt results a conjugated diene hydroperoxide. The reaction is monitored at 234 nm (Table 3).

HT-29 (colon) = assay: SRB cytotoxicity assay, HT-29; assay type: cell-based; conditions: Homo sapiens, 50% growth inhibition, 48 h exposure
Experimental: (§1) Human cancer cell lines used as targets were HT-29 (colon), A-549 (lung), OAW-42 (ovarian), MDA-MB-231 (breast), HeLa (immortal cells from cervical cancer). All cells were obtained from the American Type Culture Collection (ATCC). Cells were routinely grown as monolayer cell cultures in T-75 flasks (Costar) in an atmosphere containing 5% CO2 in air and 100% relative humidity at 37 °C and subcultured twice a week, restricting the total number of cell passages below 20. The culture medium used was Dulbecco’s modified Eagle’s medium (DMEM, Gibco, Grand Island, NY, USA) supplemented with 10% fetal bovine serum (Gibco), 2 mM glutamine (Sigma), 100 μg/mL streptomycin and 100 IU/mL penicillin.
(§2) Cell passages were carried out by detaching adherent, logarithmically growing cells after addition of 2–3 mL of a mixture of 0.05% solution of trypsin (Gibco, 1:250) in phosphate-buffered saline (PBS) with 0.02% EDTA and incubation for 3–5 min at 37 °C. For the experiments, cells were plated (100 μL containing 10,000 cells/well) in 96-well flat-bottom microplates microplates (Costar-Corning, Acton, MA 01720, USA) so that untreated cells were in exponential growth phase at the time of cytotoxicity evaluation. Cells were left for 24 h at 37 °C to resume exponential growth and stabilization and afterwards exposed to tested agents for 48 h by the addition of an equal volume (100 μL) of either complete culture medium (control wells), or twice the final drug concentrations diluted in complete culture medium (test wells). Drug cytotoxicity was measured by means of the SRB colorimetric assay estimating the survival fractions (SF) as the percent of control (untreated cells) absorbance. The SRB assay was carried out as previously described and modified by our group. In brief, culture medium was aspirated prior to fixation using a microplate-multiwash device (Tri-Continent Scientific, Inc., Grass Valley, CA, USA) and 50 μL of 10% cold (4 °C) trichloroacetic acid (TCA) were gently added to the wells. Microplates were left for 30 min at 4 °C, washed five times with deionized water and left to dry at room temperature for at least 24 h. Subsequently, 70 μL of 0.4% (w/v) sulforhodamine B (Sigma) in 1% acetic acid solution were added to each well and left at room temperature for 20 min. SRB was removed and the plates were washed five times with 1% acetic acid before air drying. Bound SRB was solubilized with 200 μL of 10 mM unbuffered Tris-base solution and plates were left on a plate shaker for at least 10 min. Absorbance was read in a 96-well plate reader at 492 nm subtracting the background measurement at 620 nm. The test optical density (OD) value was defined as the absorbance of each individual well, minus the blank value (“blank” is the mean optical density of the background control wells, n = 8). Mean values and the coefficient of variation (CV) from six replicate wells were calculated automatically. Results were expressed as the “survival fraction” (SF), as shown below.
(§3) For each tested compound a dose-effect curve was produced. Sextuplicate determinations gave a CV (Standard Deviation/mean %) of much less than 10%, resulting in standard error (SE) which was very low in all cases. The data showing inhibition of cellular growth are expressed as the fraction of cells that remains unaffected (fu) (survival fraction, SF), which is derived from the following equation: fu = ODx/ODc where ODx and ODc represent the test and the control optical density, respectively.

OAW-42 (ovarian) = assay: SRB cytotoxicity assay, OAW-42; assay type: cell-based; conditions: Homo sapiens, 50% growth inhibition, 48 h exposure
Experimental: as §1, §2, §3

[4] = tested on: HeLa (immortal cells from cervical cancer); assay: SRB cytotoxicity assay, HeLa; assay type: cell-based; conditions: Homo sapiens, 50% growth inhibition, 48 h exposure
Experimental: as §1, §2, §3

Row | SMILES | melting point [°C] | RA % (±SD), DPPH ([1]; 0.05 mM, 20 min) [%] | RA % (±SD), DPPH ([1]; 0.05 mM, 60 min) [%] | RA % (±SD), DPPH ([1]; 0.1 mM, 20 min) [%] | RA % (±SD), DPPH ([1]; 0.1 mM, 60 min) [%] | O2−· (%) (±SD) [2] | AAPH (%) (±SD), inhibition of linoleic acid peroxidation [3] | IC50 (HT-29 (colon)) [µM] | IC50 (OAW-42 (ovarian)) [µM] | IC50 [4] [µM]
1 | N#Cc1ccc(C=C(C(=O)O)c2ccccc2)cc1 [Compound 1i, 3-(4-Cyanophenyl)-2-phenylacrylic acid] | 155 to 157 | 12 ± 0.3 | 14 ± 0.1 | 28 ± 0.6 | 20 ± 0.8 | 75% and 75 ± 1.0% | 92 ± 1.2 | > 240 | > 240 | > 240
2 | O=C(O)C(=CC=Cc1ccccc1)c1ccccc1 [Compound 3i, 2,5-Diphenylpenta-2,4-dienoic acid] | 145 to 147 | 4 ± 0.02 | 3 ± 0.0 | 5 ± 0.0 | 6 ± 0.04 | no | 84 ± 1.4 | > 240 | > 240 | > 240
3 | O=C(O)C(=CC=Cc1ccc([N+](=O)[O-])cc1)c1ccccc1 [Compound 2i, 5-(4-Nitrophenyl)-2-phenylpenta-2,4-dienoic acid] | 163 to 165 | 10 ± 0.04 | 11 ± 0.02 | 23 ± 0.7 | 23 ± 0.9 | no | 89 ± 0.9 | 141 ± 1.8 | 160 ± 1.1 | 118 ± 1.4
4 | N#Cc1ccc(C=CC(=O)O)cc1 [Compound 1ii, 3-(4-Cyanophenyl)acrylic acid] | 258 to 260 | 13 ± 0.3 | 9 ± 0.03 | 23 ± 0.5 | 21 ± 1.0 | 50% and 50 ± 0.5% | 20 ± 0.1 | > 240 | > 240 | > 240
5 | O=C(O)C=CC=Cc1ccccc1 [Compound 3ii, 5-Phenylpenta-2,4-dienoic acid] |  | 11 ± 0.06 | 7 ± 0.0 | 20 ± 0.2 | 16 ± 0.05 | no | 30 ± 1.0 | > 240 | > 240 | > 240
6 | O=C(O)C=CC=Cc1ccc([N+](=O)[O-])cc1 [Compound 2ii, 5-(4-Nitrophenyl)penta-2,4-dienoic acid] | 170 to 172 |  | 13 ± 0.04 | 29 ± 1.0 | 24 ± 0.6 | no | 29 ± 0.7 | > 240 | > 240 | 240 ± 1.6

Further lines, with some results ahead:

Row | melting point [°C] | SMILES | RA % (±SD), DPPH ([1]; 0.05 mM, 20 min) [%] | RA % (±SD), DPPH ([1]; 0.05 mM, 60 min) [%] | RA % (±SD), DPPH ([1]; 0.1 mM, 20 min) [%] | RA % (±SD), DPPH ([1]; 0.1 mM, 60 min) [%] | O2−· (%) (±SD) [2] | AAPH (%) (±SD), inhibition of linoleic acid peroxidation [3] | IC50 (HT-29 (colon)) [µM] | IC50 (OAW-42 (ovarian)) [µM] | IC50 [4] [µM]
7 | 169 to 171 | O=C(O)C=CC(Br)=Cc1ccccc1 [Compound 4ii, 4-Bromo-5-phenylpenta-2,4-dienoic acid] | 17 ± 0.02 | 13 ± 0.05 | 30 ± 0.9 | 29 ± 0.6 | no | 63 ± 1.1 | 54 ± 1.1 | 63.5 ± 0.8 | 30 ± 0.4
8 | 135 to 136 | O=C(O)C(=CC(Br)=Cc1ccccc1)c1ccccc1 [Compound 4i, 4-Bromo-2,5-diphenylpenta-2,4-dienoic acid] | 7 ± 0.03 | 4 ± 0.01 | 8 ± 0.03 | 5 ± 0.0 | no | 88 ± 1.8 | > 240 | 174 ± 1.8 | 80 ± 0.9
